Test results taken from publication PMC12525028, “Blood–Brain Barrier Penetration of Novel 4-Trifluoromethyl-Coumarin Hybrids with Antibacterial Properties as Potential Brain Therapeutics in the Context of Spatially Diverse Healthcare Systems” (International Journal of Molecular Sciences, 2025).
Converted amounts (≈) assume the structure as drawn. “Also recorded” adds a separate entry of the source. Where two headings read alike, the source gives them in different places.

What was measured:
[1] = Transfer of coumarins from blood to CSF in sheep (third ventricle CSF, spectrophotometric); settings: for Mean (μg/mL) Value with Centrifugation (average coumarin concentration in CSF) / Value (μg/mL) Without Centrifugation (average coumarin concentration in CSF): iv infusion 50 mg/500 mL over 15 min; for Mean (μg/mL) Value with Centrifugation (average coumarin concentration in CSF): CSF centrifuged; for Value (μg/mL) Without Centrifugation (average coumarin concentration in CSF): CSF not centrifuged; for change in CSF concentration level after centrifugation: paired data before/after centrifugation; for transfer to the CSF (coumarin concentration level higher than 0) / crossing of the BBB/BCSFB (in words) / metabolism after crossing the BBB/BCSFB (in words): sheep; for transfer to the CSF (coumarin concentration level higher than 0): after centrifugation of CSF; for crossing of the BBB/BCSFB (in words): iv administration; for metabolism after crossing the BBB/BCSFB (in words): from regression and absorbance curves
MTT cytotoxicity assay [2] = settings: mouse, αT3-1 pituitary gonadotrope cells; for viability at 24 h, 0.5 µg/mL: cell viability, αT3-1, 0.5 µg/mL, MTT
Protocol: (§1) The cytotoxic effects of the tested peptidomimetics 1–8 on BALB/c-3T3 mouse fibroblast cells and gonadotroph cell lines such αT3-1 came from the ATCC collection.
(§2) All cells were cultured in Petri dishes in DMEM in a 5% CO2 incubator. Balb/c3T3 cells required supplementation with 10% fetal bovine serum (PAA Laboratories, cat. no. A15-751), whereas αT3-1 cells were maintained in monolayer cultures in DMEM supplemented with 10% fetal bovine serum, 100 U/ml penicillin G, and 0.1 mg/mL streptomycin (Invitrogen, China) in humidified 5% CO2, 95% air, at 37 °C. The cells were passed at ~95% confluence using a trypsin-EDTA solution (0.05% trypsin, 0.5 mM EDTA). Cells were kept in phenol red-free medium containing charcoal-treated fetal bovine serum for 4 days before the experiments. All cell lines were periodically treated with plasmacin (Invivogen #ant-mpt-1, 10 μg/mL for 2 weeks) and examined for mycoplasma contamination by DAPI staining or PCR as described in [72, 73, 74, 75].
(§3) Both cell lines were determined using the MTT assay after 24 h of incubation at five concentrations. The MTT test is based on the ability of mitochondrial dehydrogenase enzymes to convert an orange, water-soluble tetrazolium salt (3-(4,5-dimethylthiazol-2-yl)-2,5-diphenyltetrazolium bromide) into an insoluble formazan, which is a dark blue product of the above reaction. After the formazan crystals were placed in DMSO or isopropanol, a colored solution formed, and the intensity was measured spectrophotometrically within the wavelength range of 492–570 nm. The amount of colored reduced MTT was proportional to the oxidative activity of the cell mitochondria and, under strictly defined experimental conditions, to the number of metabolically active (living) cells in the population. The MTT test can also be used to determine cell viability in populations of cells that no longer divide, but are metabolically active.

MTT cytotoxicity assay [3] = settings: mouse; for viability at 24 h, 0.5 µg/mL: cell viability, BALB/c-3T3, 0.5 µg/mL, MTT
Protocol: as §1, §2, §3

[4] = Mass spectrometric determination of coumarin 2 in sheep CSF (ESI, positive mode); format: in vivo; settings: sheep CSF after administration of compound 2, sodiated ion
Protocol: All reagents and solvents were purchased from Sigma-Aldrich (Saint Louis, MI, USA). All solvents were of analytical grade and were used without prior distillation. Merck silica gel 60 F254 plates were used for TLC (Thin-Layer Chromatography) analysis. The crude reaction mixtures were purified using column chromatography on Merck silica gel 60/230–400 mesh (Rahway, NJ, USA), with an appropriate mixture of hexanes and ethyl acetate as eluent. Nuclear magnetic resonance (NMR) spectra were performed on a Varian apparatus (Varian, Saint Louis, MI, USA) (400 MHz) and (500 MHz); the mass spectrometer was from Waters Company, Milford, MA, USA. Chemical shifts are expressed in ppm and the coupling constant (J) is expressed in Hz using TMS as an internal standard. […] Cerebrospinal fluid (CSF) samples were analyzed for the presence of the investigated coumarin derivative 2 using a SCIEX API 3000 triple quadrupole mass spectrometer (Science, Engineering, and Technology (SCIEX, Concord, ON, Canada)) equipped with an electrospray ionization (ESI) source operated in positive ion mode.
Sheep CSF samples were collected and stored at −80 °C until further analysis. […] The samples were analyzed using a SCIEX API 3000 triple quadrupole mass spectrometer equipped with an electrospray ionization (ESI) source operating in positive ion mode. […]

[5] = Solubility in water (observation); format: physicochemical
[6] = in vivo; for crossing of the BBB/BCSFB (in words): iv
in vitro [7] = settings: mouse, cell viability, αT3-1, 0.5 µg/mL, MTT
Protocol: as §1, §2, §3

in vitro [8] = settings: mouse, cell viability, BALB/c-3T3, 0.5 µg/mL, MTT
Protocol: as §1, §2, §3

[9] = BALB/c-3T3 mouse embryonic fibroblast cells

## COc1ccc(CNC(=O)C(c2ccc(OC)cc2)N(C(=O)CCCC(=O)O)c2ccc3c(C)cc(=O)oc3c2)cc1 (centres unmarked) [Compound 1]
[1]; sheep CSF
  Mean (μg/mL) Value with Centrifugation (average coumarin concentration in CSF): 2 (+/−5) μg/mL
  Value (μg/mL) Without Centrifugation (average coumarin concentration in CSF): 10 (+/−5) μg/mL

## CCOC(=O)CNC(=O)C(Nc1ccc2c(C(F)(F)F)cc(=O)oc2c1)c1ccccc1 (centres unmarked) [Compound 2]
MTT cytotoxicity assay [2]
  IC50 at 24 h: 6.58 µg/mL (≈ 14.7 µM)
MTT cytotoxicity assay [3]
  IC50 at 24 h: 6.58 µg/mL (≈ 14.7 µM)
[4]
  detection in CSF by ESI-MS: presence of the compound as its sodiated ion
[5]
  solubility in water (in words): does not dissolve in water
[1]; sheep CSF
  Value (μg/mL) Without Centrifugation (average coumarin concentration in CSF): 350 (+/−5) μg/mL
  change in CSF concentration level after centrifugation: significant decrease
[1]; sheep CSF, iv infusion, after centrifugation
  average coumarin concentration in CSF after centrifugation: 118.32 µg/mL
[1]; sheep CSF, iv infusion, before centrifugation
  average coumarin concentration in CSF before centrifugation: 355.85 µg/mL
[1]
  transfer to the CSF (coumarin concentration level higher than 0): statistically confirmed
[6]
  crossing of the BBB/BCSFB (in words): penetrated the blood–brain barrier to the greatest extent
[6]; sheep
  protein binding (in words): binds well to proteins

## COc1ccc(CNC(=O)C(c2ccccc2)N(C(=O)CCCC(=O)O)c2ccc3c(C)cc(=O)oc3c2)cc1 (centres unmarked) [Compound 3]
MTT cytotoxicity assay [2]
  viability at 24 h, 0.5 µg/mL: > 96%
MTT cytotoxicity assay [3]; [9]
  viability at 24 h, 0.5 µg/mL: > 96%
[1]; sheep CSF
  Value (μg/mL) Without Centrifugation (average coumarin concentration in CSF): 2.5 (+/−5) μg/mL
[1]
  crossing of the BBB/BCSFB (in words): crossed the BBB/BCSFB
  metabolism after crossing the BBB/BCSFB (in words): partially metabolized

## CCOC(=O)CNC(=O)C(Nc1ccc2c(C(F)(F)F)cc(=O)oc2c1)c1ccc(OC)cc1 (centres unmarked) [Compound 4]
In vitro [7]
  viability at 24 h, 0.5 µg/mL: > 96%
In vitro [8]
  viability at 24 h, 0.5 µg/mL: > 96%

## CCOC(=O)CNC(=O)C(c1ccc(OC)cc1)N(C(=O)Cc1ccccc1)c1ccc2c(C)cc(=O)oc2c1 (centres unmarked) [Compound 5]
MTT cytotoxicity assay [2]
  viability at 24 h, 0.5 µg/mL: > 96%
MTT cytotoxicity assay [3]; [9]
  viability at 24 h, 0.5 µg/mL: > 96%
[1]; sheep CSF
  Value (μg/mL) Without Centrifugation (average coumarin concentration in CSF): 5 (+/−5) μg/mL
[1]
  crossing of the BBB/BCSFB (in words): crossed the BBB/BCSFB
  metabolism after crossing the BBB/BCSFB (in words): partially metabolized

## Cc1cc(=O)oc2cc(/N=C/c3ccccc3)ccc12 [Compound 6]
MTT cytotoxicity assay [2]
  viability at 24 h, 0.5 µg/mL: > 96%
MTT cytotoxicity assay [3]; [9]
  viability at 24 h, 0.5 µg/mL: > 96%
[1]; sheep CSF
  Value (μg/mL) Without Centrifugation (average coumarin concentration in CSF): 8 (+/−5) μg/mL

## CCOC(=O)CNC(=O)C(Nc1ccc2c(C(F)(F)F)cc(=O)oc2c1)c1ccc(Br)cc1 (centres unmarked) [Compound 7]
[6]
  metabolism after crossing the BBB/BCSFB (in words): partially metabolized
  transfer to the CSF (coumarin concentration level higher than 0): statistically confirmed
  crossing of the BBB/BCSFB (in words): crossed the BBB/BCSFB

## COc1ccc(CNC(=O)C(c2ccc(Br)cc2)N(C(=O)Cc2ccccc2)c2ccc3c(C)cc(=O)oc3c2)cc1 (centres unmarked) [Compound 8]
MTT cytotoxicity assay [2]
  IC50 at 24 h: 1.71 µg/mL (≈ 2.73 µM)
MTT cytotoxicity assay [3]; [9]
  IC50 at 24 h: 1.71 µg/mL (≈ 2.73 µM)
[1]; sheep CSF
  Mean (μg/mL) Value with Centrifugation (average coumarin concentration in CSF): 20 (+/−5) μg/mL
  Value (μg/mL) Without Centrifugation (average coumarin concentration in CSF): 30 (+/−5) μg/mL
  change in CSF concentration level after centrifugation: significant decrease
[1]
  transfer to the CSF (coumarin concentration level higher than 0): statistically confirmed
  crossing of the BBB/BCSFB (in words): penetrated the blood–brain barrier to the greatest extent; also recorded: capable of crossing the blood–brain barrier
